From patent US20230219913A1, “Sulfamoylamide Derivatives” (Hoffmann-La Roche Inc., priority 2020, published 2023)

target: T1, human cGAS (residues 161-522) (Homo sapiens, UniProt Q8N884); test: Malachite Green assay to measure cGAS activity (coupled enzymatic assay, phosphate detection); type: biochemical; settings: recombinant human cGAS 25 nM; 80 μM ATP, 80 μM GTP, 100 nM ISD; 4 hour at RT
T1 construct: Recombinantly expressed purified human cGAS (residues 161-522) was used at 25 nM; made in house
Experimental: Malachite Green Assay to Measure cGAS Activity
Compounds were tested for cGAS inhibition in a coupled enzymatic assay based on Phosphate detection by Malachite Green. Final assay conditions were 20 mM TRIS pH 7.5 (Applichem), 5 mM MgCl2 (Sigma) and 0.01% BSA (Sigma) supplemented with 80 μM ATP (Sigma), 80 μM GTP (Sigma) and 100 nM Interferon Stimulating DNA (ISD) (Microsynth). Recombinantly expressed purified human cGAS (residues 161-522) was used at 25 nM.
All compounds were prepared as 10 mM stock solutions in DMSO and a 16 pt dilution series in DMSO with a dilution factor of 2.5 was prepared. 1 μL of DMSO dilution series was transferred to 32.3 μL reaction buffer, mixed by pipetting up/down, spun for 1 minute at 3000 rpm and was visually inspected for precipitation. 5 μL of 3-fold enzyme stock solution were transferred to an empty 384-well Black/Clear Flat Bottom Polystyrene NBS (Corning) rows 3-24. Rows 1-2 were filled with assay buffer. Plates were spun 10 seconds at 1000 rpm (164×g). 5 μL of compound intermediate dilution was added and mixed by pipetting up/down to rows 3-24. Rows 1-2 were filled with 3.1% DMSO assay buffer. Plates were spun 10 seconds at 1000 rpm (164×g). 5 μL 3-fold Nucleotide/DNA mix was added to all wells to start the reaction. Plates were spun 10 seconds at 1000 rpm (164×g) and incubated for 4 hour at room temperature (RT) in the dark. 5 μL 4 U/mL PPase (Sigma) were added to all wells. Plates spun 10 seconds at 1000 rpm (164×g). 10 μL BioMol green Solution (Enzo Life Sciences) was added to all wells. Plates spun 10 seconds at 1000 rpm (164×g) and incubated 30 minutes at RT in the dark. Absorbance data was collected 620 nm on an EnVision Multilable Reader (Perkin Elmer) and the following measurement settings were used: excitation filter photometric was 620 nm; excitation from the top; measurement height was 1 mm; number of flashes was 30; number of flashes integrated was 1.
All plates are checked for abnormalities and outliers in the Blank Control (no protein, row 1) and the Neutral Control (no compound, row 2) are excluded using the 3*SD rule. Data was normalized to 0 and 100% by Blank and Neutral Control and each curve was fitted and judged using the 4 parameter logistic equation to determine the IC50 for cGAS inhibition.
Table 1 provides IC50 values (04) for cGAS inhibition obtained for particular examples of the present invention as measured by the above-described assay.

T1 sequence (Q8N884 161-522): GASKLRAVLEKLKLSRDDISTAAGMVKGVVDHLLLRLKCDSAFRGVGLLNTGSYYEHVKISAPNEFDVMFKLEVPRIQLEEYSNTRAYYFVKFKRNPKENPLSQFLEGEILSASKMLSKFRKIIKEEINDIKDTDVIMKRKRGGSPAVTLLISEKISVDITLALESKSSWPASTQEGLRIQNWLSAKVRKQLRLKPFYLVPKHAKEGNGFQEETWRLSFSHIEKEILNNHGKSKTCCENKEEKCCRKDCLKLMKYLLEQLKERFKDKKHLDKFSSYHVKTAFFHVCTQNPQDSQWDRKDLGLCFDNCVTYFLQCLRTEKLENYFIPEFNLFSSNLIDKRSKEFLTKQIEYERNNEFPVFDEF

Row | Compound | IC50 [µM]
1 | Cc1ccc(-c2ccc3c(c2)C(=O)N(CCN2CCOCC2)S(=O)(=O)N3)c(Cl)c1 [Example 5, 6-(2-Chloro-4-methylphenyl)-3-(2-morpholinoethyl)-1H-benzo[c][1,2,6]thiadiazin-4(3H)-one 2,2-dioxide] | 17.6
2 | Cc1ccc(-c2ccc3c(c2)C(=O)NS(=O)(=O)N3CCN2CCOCC2)c(Cl)c1 [Example 2, 6-(2-Chloro-4-methylphenyl)-1-(2-morpholinoethyl)-1H-benzo[c][1,2,6]thiadiazin-4(3H)-one 2,2-dioxide] | 9.6
3 | Cc1ccc(-c2ccc3c(c2)C(=O)NS(=O)(=O)N3)c(Cl)c1 [Example 1, 6-(2-Chloro-4-methylphenyl)-1H-benzo[c][1,2,6]thiadiazin-4(3H)-one 2,2-dioxide] | 2.94

Second part, the molecule after the results:

Row | IC50 [µM] | Compound
4 | 14.2 | Cc1ccc(-c2ccc3c(c2)C(=O)NS(=O)(=O)N3Cc2ccncc2)c(Cl)c1 [Example 3, 6-(2-Chloro-4-methylphenyl)-1-(pyridin-4-ylmethyl)-1H-benzo[c][1,2,6]thiadiazin-4(3H)-one 2,2-dioxide]
5 | 17.2 | Cc1ccc(-c2ccc3c(c2)C(=O)NS(=O)(=O)N3CCc2ccccc2)c(Cl)c1 [Example 4, 6-(2-Chloro-4-methylphenyl)-1-phenethyl-1H-benzo[c][1,2,6]thiadiazin-4(3H)-one 2,2-dioxide]
6 | 20.1 | Cc1ccc(-c2ccc3c(c2)C(=O)NS(=O)(=O)N3Cc2ccccc2)c(Cl)c1 [Example 6, 1-Benzyl-6-(2-chloro-4-methylphenyl)-1H-benzo[c][1,2,6]thiadiazin-4(3H)-one 2,2-dioxide]
